Data reported in PubChem BioAssay AID1259407 (Chemical Carcinogenesis Research Information System (CCRIS), 2018).
Calls of active or inactive are those of the source. How the calls were made is not given here.

Test system: CCRIS mutagenicity, Ames/micronucleus/aberration tests
Test: CCRIS mutagenicity studies
[1] = Test System: AMES SALMONELLA TYPHIMURIUM, Strain/Indicator: TA1538, Metabolic Activation: NONE, Method: STANDARD PLATE
[2] = Test System: AMES SALMONELLA TYPHIMURIUM, Strain/Indicator: TA100, Metabolic Activation: NONE, Method: PREINCUBATION
[3] = Test System: AMES SALMONELLA TYPHIMURIUM, Strain/Indicator: TA100, Metabolic Activation: NONE, Method: STANDARD PLATE
[4] = Test System: AMES SALMONELLA TYPHIMURIUM, Strain/Indicator: TA100, Metabolic Activation: RAT, LIVER, S-9, AROCLOR 1254, Method: STANDARD PLATE
[5] = Test System: AMES SALMONELLA TYPHIMURIUM, Strain/Indicator: TA98, Metabolic Activation: NONE, Method: STANDARD PLATE
[6] = Test System: AMES SALMONELLA TYPHIMURIUM, Strain/Indicator: TA97, Metabolic Activation: NONE, Method: STANDARD PLATE
[7] = Test System: AMES SALMONELLA TYPHIMURIUM, Strain/Indicator: TA102, Metabolic Activation: NONE, Method: STANDARD PLATE
[8] = Test System: AMES SALMONELLA TYPHIMURIUM, Strain/Indicator: TA1535, Metabolic Activation: NONE, Method: STANDARD PLATE

For `CCN(CC)c1ccc(-c2ccccc2)c(-c2ccccc2)c1N(CC)CC`, the mutagenic call [1] was “active; positive” and the mutagenic call (Test System: AMES SALMONELLA TYPHIMURIUM, Strain/Indicator: TA1538, Metabolic Activation: RAT, LIVER, S-9, AROCLOR 1254, Method: STANDARD PLATE) was “active; positive”.

With `NC(=S)NNC(N)=S` the mutagenic call (End Point: IN VITRO CHROMOSOMAL ABERRATIONS, Test System: CHINESE HAMSTER OVARY CELLS, Metabolic Activation: RAT, LIVER, S-9, AROCLOR 1254) was “inactive; negative”.

With `NC(=O)CC1CO1` (centres undefined) the mutagenic call [2] was “active; positive”, the mutagenic call [3] was “active; positive” and the mutagenic call (Test System: AMES SALMONELLA TYPHIMURIUM, Strain/Indicator: TA100, Metabolic Activation: RAT, LIVER, S-9, AROCLOR 1254, Method: PREINCUBATION) was “active; positive”. For the same molecule, the mutagenic call [4] was “active; positive”.

`O=C(NCCCl)Nc1ncc([N+](=O)[O-])s1` was tested, and the mutagenic call [5] was “active; positive” and the mutagenic call [3] was “active; positive”.

For `O=C(Nc1ccccc1)c1csc([N+](=O)[O-])c1`, the mutagenic call (Test System: AMES SALMONELLA TYPHIMURIUM, Strain/Indicator: TA98(1,8-DNP6), Metabolic Activation: NONE, Method: STANDARD PLATE) was “active; positive”, the mutagenic call (Test System: AMES SALMONELLA TYPHIMURIUM, Strain/Indicator: TA98(NR), Metabolic Activation: NONE, Method: STANDARD PLATE) was “inactive; negative” and the mutagenic call [5] was “active; positive”. For the same molecule, the mutagenic call [3] was “active; positive”, the mutagenic call (Test System: AMES SALMONELLA TYPHIMURIUM, Strain/Indicator: YG1021, Metabolic Activation: NONE, Method: STANDARD PLATE) was “active; positive” and the mutagenic call (Test System: AMES SALMONELLA TYPHIMURIUM, Strain/Indicator: YG1024, Metabolic Activation: NONE, Method: STANDARD PLATE) was “active; positive”.

`Cc1cccc(Nc2cc(Cl)nc(SCC(=O)NCCO)n2)c1C` was tested, and the mutagenic call (Test System: AMES SALMONELLA TYPHIMURIUM, Strain/Indicator: TA98, Metabolic Activation: NONE) was “inactive; negative”, the mutagenic call (Test System: AMES SALMONELLA TYPHIMURIUM, Strain/Indicator: TA98, Metabolic Activation: RAT, LIVER, S-9, AROCLOR 1254) was “inactive; negative” and the mutagenic call (Test System: AMES SALMONELLA TYPHIMURIUM, Strain/Indicator: TA102, Metabolic Activation: NONE) was “inactive; negative”. For the same molecule, the mutagenic call (Test System: AMES SALMONELLA TYPHIMURIUM, Strain/Indicator: TA102, Metabolic Activation: RAT, LIVER, S-9, AROCLOR 1254) was “inactive; negative”, the mutagenic call (Test System: AMES SALMONELLA TYPHIMURIUM, Strain/Indicator: TA104, Metabolic Activation: NONE) was “inactive; negative” and the mutagenic call (Test System: AMES SALMONELLA TYPHIMURIUM, Strain/Indicator: TA104, Metabolic Activation: RAT, LIVER, S-9, AROCLOR 1254) was “inactive; negative”. For the same molecule, the mutagenic call (Test System: UDS RAT HEPATOCYTES, Strain/Indicator: THY INCORP, Metabolic Activation: NONE, Method: LIQUID SCINTILLATION COUNTING) was “active; positive”.

For `[Ag][I]`, the mutagenic call [6] was “inactive; negative”, the mutagenic call (Test System: AMES SALMONELLA TYPHIMURIUM, Strain/Indicator: TA97, Metabolic Activation: RAT LIVER S-9, AROCLOR 1254, Method: STANDARD PLATE) was “active; positive” and the mutagenic call [5] was “inactive; negative”. For the same molecule, the mutagenic call (Test System: AMES SALMONELLA TYPHIMURIUM, Strain/Indicator: TA98, Metabolic Activation: RAT LIVER S-9, AROCLOR 1254, Method: STANDARD PLATE) was “inactive; negative”, the mutagenic call [7] was “active; positive” and the mutagenic call (Test System: AMES SALMONELLA TYPHIMURIUM, Strain/Indicator: TA102, Metabolic Activation: RAT LIVER S-9, AROCLOR 1254, Method: STANDARD PLATE) was “inactive; negative”. For the same molecule, the mutagenic call [8] was “inactive; negative” and the mutagenic call (Test System: AMES SALMONELLA TYPHIMURIUM, Strain/Indicator: TA1535, Metabolic Activation: RAT LIVER S-9, AROCLOR 1254, Method: STANDARD PLATE) was “inactive; negative”.

With `CCN=C=S` the mutagenic call (Test System: AMES SALMONELLA TYPHIMURIUM, Strain/Indicator: TA97, Metabolic Activation: NONE, Method: PREINCUBATION) was “inactive; negative”, the mutagenic call (Test System: AMES SALMONELLA TYPHIMURIUM, Strain/Indicator: TA97, Metabolic Activation: RAT, LIVER, S-9, AROCLOR 1254, Method: PREINCUBATION) was “inactive; negative” and the mutagenic call (Test System: AMES SALMONELLA TYPHIMURIUM, Strain/Indicator: TA102, Metabolic Activation: NONE, Method: PREINCUBATION) was “inactive; negative”. For the same molecule, the mutagenic call (Test System: AMES SALMONELLA TYPHIMURIUM, Strain/Indicator: TA102, Metabolic Activation: RAT, LIVER, S-9, AROCLOR 1254, Method: PREINCUBATION) was “inactive; negative”.

In the case of `Nc1cccc(Cl)c1`, the mutagenic call (End Point: IN VITRO CHROMOSOMAL ABERRATIONS, Test System: CHL/IU CELLS, Metabolic Activation: NONE) is reported as “active; positive (structural changes)”, the mutagenic call (End Point: IN VITRO MICRONUCLEUS, Test System: CHL/IU CELLS, Metabolic Activation: NONE) is reported as “active; positive” and the mutagenic call (Test System: AMES SALMONELLA TYPHIMURIUM, Strain/Indicator: TA98, Metabolic Activation: NONE, Method: PREINCUBATION) is reported as “inactive; negative”. For the same molecule, the mutagenic call (Test System: AMES SALMONELLA TYPHIMURIUM, Strain/Indicator: TA98, Metabolic Activation: RAT, LIVER, S-9, AROCLOR 1254 (10%), Method: PREINCUBATION) was “inactive; negative”, the mutagenic call (Test System: AMES SALMONELLA TYPHIMURIUM, Strain/Indicator: TA100, Metabolic Activation: HAMSTER, LIVER, S-9, AROCLOR 1254 (10%), Method: PREINCUBATION) was “inactive; negative” and the mutagenic call [2] was “inactive; negative”. For the same molecule, the mutagenic call (Test System: AMES SALMONELLA TYPHIMURIUM, Strain/Indicator: TA100, Metabolic Activation: RAT, LIVER, S-9, AROCLOR 1254 (10%), Method: PREINCUBATION) was “inactive; negative”, the mutagenic call (Test System: AMES SALMONELLA TYPHIMURIUM, Strain/Indicator: TA1535, Metabolic Activation: HAMSTER, LIVER, S-9, AROCLOR 1254 (10%), Method: PREINCUBATION) was “inactive; negative” and the mutagenic call (Test System: AMES SALMONELLA TYPHIMURIUM, Strain/Indicator: TA1535, Metabolic Activation: NONE, Method: PREINCUBATION) was “inactive; negative”. The mutagenic call (Test System: AMES SALMONELLA TYPHIMURIUM, Strain/Indicator: TA1535, Metabolic Activation: RAT, LIVER, S-9, AROCLOR 1254 (10%), Method: PREINCUBATION) was “inactive; negative”, the mutagenic call (Test System: AMES SALMONELLA TYPHIMURIUM, Strain/Indicator: TA1537, Metabolic Activation: HAMSTER, LIVER, S-9, AROCLOR 1254 (10%), Method: PREINCUBATION) was “inactive; negative” and the mutagenic call (Test System: AMES SALMONELLA TYPHIMURIUM, Strain/Indicator: TA1537, Metabolic Activation: NONE, Method: PREINCUBATION) was “inactive; negative”. For the same molecule, the mutagenic call (Test System: AMES SALMONELLA TYPHIMURIUM, Strain/Indicator: TA1537, Metabolic Activation: RAT, LIVER, S-9, AROCLOR 1254 (10%), Method: PREINCUBATION) was “inactive; negative”, the mutagenic call (Test System: CHINESE HAMSTER V-79, Strain/Indicator: V-79/8-AZAGUANINE, Metabolic Activation: NONE, Method: SUSPENSION/PLATE) was “active; positive” and the mutagenic call (Test System: CHINESE HAMSTER V-79, Strain/Indicator: V-79/OUABAIN, Metabolic Activation: NONE, Method: SUSPENSION/PLATE) was “inactive; negative”.

`Clc1cccc(Cl)n1` was tested, and the mutagenic call [6] was “inactive; negative”, the mutagenic call [5] was “inactive; negative” and the mutagenic call (Test System: AMES SALMONELLA TYPHIMURIUM, Strain/Indicator: TA98, Metabolic Activation: RAT, LIVER, S-9, AROCLOR 1254, Method: STANDARD PLATE) was “inactive; negative”. For the same molecule, the mutagenic call [3] was “inactive; negative”, the mutagenic call [4] was “inactive; negative” and the mutagenic call [7] was “inactive; negative”. For the same molecule, the mutagenic call (Test System: AMES SALMONELLA TYPHIMURIUM, Strain/Indicator: TA102, Metabolic Activation: RAT, LIVER, S-9, AROCLOR 1254, Method: STANDARD PLATE) was “inactive; negative”.

With `O=C1C(Cl)=C(Cl)C(=O)C1(Cl)Cl` the mutagenic call [3] was “inactive; negative”.

In the case of `CCN(CCCl)CCCNc1c2ccccc2nc2c1ccc1cccnc12`, the mutagenic call [5] is reported as “active; positive”, the mutagenic call [3] is reported as “active; positive” and the mutagenic call [8] is reported as “inactive; negative”. For the same molecule, the mutagenic call (Test System: AMES SALMONELLA TYPHIMURIUM, Strain/Indicator: TA1536, Metabolic Activation: NONE, Method: STANDARD PLATE) was “active; positive”, the mutagenic call (Test System: AMES SALMONELLA TYPHIMURIUM, Strain/Indicator: TA1537, Metabolic Activation: NONE, Method: STANDARD PLATE) was “active; positive” and the mutagenic call [1] was “active; positive”.

With `Oc1cc2ccc3cccc4cc5c(c1-c1ccccc1-5)c2c34` the mutagenic call [4] was “inactive; negative”.
